Data: paper PMC11106165, “Repurposing the KCa3.1 Blocker Senicapoc for Ischemic Stroke” (Translational Stroke Research, 2023)

Legend:
[1] = humans; cited from earlier work
[2] = Plasma protein binding by rapid equilibrium dialysis; type: in vitro ADME; details: mouse plasma, triplicate
Description: In order to determine whether senicapoc sufficiently engages its target, additional mice were subjected to 60 min of MCAO, treated with 40 mg/kg senicapoc IP 12 h after reperfusion and then sacrificed 1 h, 4 h, and 12 h later. Mice were deeply anesthetized with isoflurane, and blood was collected from the vena cava into EDTA tubes, and then transcardially perfused with 30 mL of saline. The brain was removed, and the forebrain divided into ipsi- and contralateral side. Brain and plasma samples were stored at − 80 °C pending analysis and then prepared and analyzed as previously described using a Waters Acquity UPLC (Waters, NY) equipped with a Acquity UPLC BEH 1.7 μm C-18 column interfaced to a TSQ Quantum Access Max mass spectrometer (Thermo Fisher Scientific, MA). Senicapoc was analyzed by the selective reaction monitoring transition of its molecular ion peak 324.09 (M + 1) into 228.07, 200.07, 183.11, and 122.18 m/z. An 8-point calibration curve ranging from 50 nM to 10 μM was used for quantification. Senicapoc plasma protein binding was determined with mouse plasma or mouse brain extract in triplicate using rapid equilibrium devices with a molecular weight cutoff of 8 kD (RED, Fisher Scientific).

[3] = system: male C57BL/6 J mice, tMCAO; assay: tMCAO (60 min) in mice, infarct area by T2-weighted MRI; type: in vivo, mouse
Description: Reversible focal cerebral ischemia was induced by occlusion of the left middle cerebral artery (MCA) according to the classic filament method of Zea Longa as previously described for mice by our laboratory. All surgeries were performed in the MicroSurgery Core of the UC Davis School of Medicine by a microsurgeon with 20 years of surgical experience using a silicone rubber-coated nylon monofilament with a tip diameter of 0.21 ± 0.02 mm (No. 702112PK5Re, Doccol Corporation). Anesthesia was induced with 5% isoflurane and then maintained with 0.5 to 1.5% isoflurane in medical pure oxygen administered through a facemask. To assure consistent and continuous reduction of cerebral blood flow (CBF), a laser Doppler (Moor Instruments: MOORVMS-LDF) probe adapter was affixed to the surface of the skull over the brain area supplied by the MCA using dental cement. The probe remained in place throughout the MCAO surgery and CBF was measured continuously to confirm occlusion and later establishment of reperfusion. Animals were kept under anesthesia and body temperature was monitored throughout the whole procedure and maintained at > 36.5 °C using a feedback-controlled heating pad. Following 60 min of MCAO, the filament was withdrawn to allow reperfusion. Blood flow measurements were continued for another 15 min before removing the adapter and the laser Doppler probe. Animals received subcutaneous Buprenex at 0.02 mg/kg every 12 h to limit post-surgical pain for 24 h after surgery. The survival rate was 93%. […] In this study, out of the animals surviving to day 8 (45 out of 48), two animals were excluded because they lacked an obvious neurological deficit score at 12 h. Animals that met inclusion criteria were assigned to the 3 groups (low- and high-dose senicapoc or vehicle) based on a computer-generated randomization scheme. […]
Infarct volume was evaluated with T2-weighted MRI imaging in the Nuclear Magnetic Resonance Facility at UC Davis. […] The multi-slice multi-echo (sequence (TE:56 ms; TR: 1681.2 ms) was used to acquire images of 7 coronal sections with 1-mm thickness from the junction of olfactory bulb and cortex. The infarct area was analyzed with Adobe Photoshop Elements by an investigator blinded to the treatments. On day 3, infarct area was corrected for edema and calculated with the equation: (L − N)/L × 100%; L, left (contralateral) hemisphere area; N, non-infarcted tissue area in the ipsilateral hemisphere. By day 8 post tMCAO, there typically is either only minimal or no associated cerebral edema, so no correction for edema is required and the percentage of infarcted area was calculated with the equation: (Infarct Area/Ipsilateral Hemisphere Area) × 100%.

In the case of `NC(=O)C(c1ccccc1)(c1ccc(F)cc1)c1ccc(F)cc1` [senicapoc], the half-life [1] is given as 12 days, the “binding to plasma protein” value [2] is given as 96.8 ± 0.5% and the T2-weighted lesion area ([3]; 10 mg/kg IP twice daily started 12 h after reperfusion, day 8, n = 7, vehicle 20.5 ± 1.3%) is given as 11.6 ± 1.1%. The T2-weighted lesion area ([3]; 40 mg/kg IP twice daily started 12 h after reperfusion, day 8, n = 7, vehicle 20.5 ± 1.3%) was 9.3 ± 1.3%, the T2-weighted lesion area ([3]; 40 mg/kg started 3 h after tMCAO, day 3, n = 8, P = 0.199, vehicle 21.4 ± 2.3%) was 16.1 ± 3.1% and the T2-weighted lesion area ([3]; 40 mg/kg started 3 h after tMCAO, day 8, n = 8, P = 0.0318, vehicle 16.6 ± 1.0%) was 11.7 ± 1.8%.
